Drawing on patent publication US8394823B2, “Triazolopyridine compounds useful as DGAT1 inhibitors” (Bristol-Myers Squibb Company, priority 2008, dated 2013), this text covers IC50 for twelve compounds.

In this test the target is T1, recombinant human DGAT1 (Homo sapiens, UniProt O75907).
T1 construct: made in house; host or cells: Sf9 insect cells (baculovirus)
T1 sequence (O75907 1-488): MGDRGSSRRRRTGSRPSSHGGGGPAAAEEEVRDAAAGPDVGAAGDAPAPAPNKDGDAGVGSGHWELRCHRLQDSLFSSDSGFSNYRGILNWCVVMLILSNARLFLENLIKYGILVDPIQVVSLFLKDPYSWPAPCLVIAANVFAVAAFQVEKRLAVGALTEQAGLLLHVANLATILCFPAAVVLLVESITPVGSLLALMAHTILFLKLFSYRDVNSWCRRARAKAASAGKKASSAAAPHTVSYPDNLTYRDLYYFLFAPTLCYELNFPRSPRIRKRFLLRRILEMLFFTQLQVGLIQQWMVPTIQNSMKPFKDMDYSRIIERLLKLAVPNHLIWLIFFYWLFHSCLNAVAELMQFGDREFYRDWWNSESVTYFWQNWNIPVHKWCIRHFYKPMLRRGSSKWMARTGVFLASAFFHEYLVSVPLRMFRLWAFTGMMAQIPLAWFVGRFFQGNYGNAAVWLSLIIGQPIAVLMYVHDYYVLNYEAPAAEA
Put plainly: DGAT1 enzyme assay. Type of test: biochemical. Particulars: membranes from Sf9 insect cells expressing recombinant human DGAT1; 25 μM 2-monooleoyl-glycerol, 25 μM [3H]-stearoyl-CoA, pH 7.4, 30 min, 25° C., SPA. As for the experimental part: DGAT1 enzyme assays were conducted using membranes isolated from Sf9 insect cells expressing the recombinant human DGAT1 cDNA. The assays were conducted in 384-well plates with total volume of 25 μl at 25° C. In each assay, 300 ng of recombinant human DGAT1 membrane was incubated with 25 μM of 2-monooleoyl-glycerol and 25 μM of [^3H]-stearoyl-CoA in 100 mM potassium phosphate (pH 7.4) for 30 min with various concentrations of compounds delivered in DMSO. The assay was terminated by the addition of 30 μl of Stopping Solution [50 mM HEPES, 5 mg/ml Yittrium Oxide (YOX) Polylysine SPA beads, 3.33 mg/ml Fraction V BSA, 200 μM Mercuric chloride]. The signal was measured using LEADSEEKER^SM for 5 minutes. To calculate the degree of inhibition, the zero level of enzyme activity (blank) was defined by the above assay using Sf9 cell membrane uninfected with baculovirus and the 100% level of DGAT1 enzyme activity was defined by human DGAT1 assay with the vehicle DMSO. The IC50 values of inhibitors were determined by Excel-fit.
One may read the IC50 as the concentration at which inhibition is half-maximal. Regarding `CC(C)[C@@H](Cc1nnc2cc(-c3ccc(Nc4nc5ccc(Cl)cc5s4)cc3)ccn12)C(=O)O` [Example 2, (R)-2-((7-(4-(6-Chlorobenzo[d]thiazol-2-ylamino)phenyl)-[1,2,4]triazolo[4,3-a]pyridin-3-yl)methyl)-3-methylbutanoic acid], the IC50 was determined as 0.16 µM.

`CC(C)C[C@@H](Cc1nnc2cc(-c3ccc(Nc4nc5ccc(Cl)cc5s4)cc3)ccn12)C(=O)O` [Example 4, (S)-2-((7-(4-(6-Chlorobenzo[d]thiazol-2-ylamino)phenyl)-[1,2,4]triazolo[4,3-a]pyridin-3-yl)methyl)-4-methylpentanoic acid]: the IC50 is 2.8 µM.

For `CC(C)[C@H](Cc1nnc2cc(-c3ccc(Nc4nc5ccc(Cl)cc5s4)cc3)ccn12)C(=O)O` [Example 1, (S)-2-((7-(4-(6-Chlorobenzo[d]thiazol-2-ylamino)phenyl)-[1,2,4]triazolo[4,3-a]pyridin-3-yl)methyl)-3-methylbutanoic acid], the IC50 was found to be 0.01 µM.

As for `CC(C)C[C@H](Cc1nnc2cc(-c3ccc(Nc4nc5ccc(Cl)cc5s4)cc3)ccn12)C(=O)O` [Example 3, (R)-2-((7-(4-(6-Chlorobenzo[d]thiazol-2-ylamino)phenyl)-[1,2,4]triazolo[4,3-a]pyridin-3-yl)methyl)-4-methylpentanoic acid], the IC50 worked out at 0.32 µM.

For the compound `O=C(O)[C@@H](Cc1nnc2cc(-c3ccc(Nc4nc5ccc(Cl)cc5s4)cc3)ccn12)CC1CCCCC1` [Example 6, (R)-3-(7-(4-(6-Chlorobenzo[d]thiazol-2-ylamino)phenyl)-[1,2,4]triazolo[4,3-a]pyridin-3-yl)-2-(cyclohexylmethyl)propanoic acid], the IC50 came out at 3.6 µM.

For the compound `CCCC[C@H](Cc1nnc2cc(-c3ccc(Nc4nc5ccc(Cl)cc5s4)cc3)ccn12)C(=O)O` [Example 5, (R)-2-((7-(4-(6-Chlorobenzo[d]thiazol-2-ylamino)phenyl)-[1,2,4]triazolo[4,3-a]pyridin-3-yl)methyl)hexanoic acid], the IC50 turned out to be 0.2 µM.

On to `COC(=O)[C@H](Cc1nnc2cc(-c3ccc(Nc4nc5ccc(Cl)cc5s4)cc3)ccn12)C(C)C` [Example 2B, (R)-Methyl 2-((7-(4-(6-chlorobenzo[d]thiazol-2-ylamino)phenyl)-[1,2,4]triazolo[4,3-a]pyridin-3-yl)methyl)-3-methylbutanoate], for which the IC50 was found to be 15 µM.

Take `COC(=O)[C@@H](Cc1nnc2cc(-c3ccc(Nc4nc5ccc(Cl)cc5s4)cc3)ccn12)CC(C)C` [Example 3B, (R)-Methyl 2-((7-(4-(6-chlorobenzo[d]thiazol-2-ylamino)phenyl)-[1,2,4]triazolo[4,3-a]pyridin-3-yl)methyl)-4-methylpentanoate]: the IC50 came to 25 µM.

As for `COC(=O)[C@H](Cc1nnc2cc(-c3ccc(Nc4nc5ccc(Cl)cc5s4)cc3)ccn12)CC(C)C` [Example 4B, (S)-Methyl 2-((7-(4-(6-chlorobenzo[d]thiazol-2-ylamino)phenyl)-[1,2,4]triazolo[4,3-a]pyridin-3-yl)methyl)-4-methylpentanoate], the IC50 came to 50 µM.

For the compound `O=C(O)[C@@H](Cc1nnc2cc(-c3ccc(Nc4nc5ccc(Cl)cc5s4)cc3)ccn12)C1CCCCC1` [Example 7, (S)-3-(7-(4-(6-Chlorobenzo[d]thiazol-2-ylamino)phenyl)-[1,2,4]triazolo[4,3-a]pyridin-3-yl)-2-cyclohexylpropanoic acid], the IC50 was found to be 2.8 µM.

Take `COC(=O)[C@@H](Cc1nnc2cc(-c3ccc(Nc4nc5ccc(Cl)cc5s4)cc3)ccn12)C(C)C` [Example 1F, (S)-Methyl 2-((7-(4-(6-chlorobenzo[d]thiazol-2-ylamino)phenyl)-[1,2,4]triazolo[4,3-a]pyridin-3-yl)methyl)-3-methylbutanoate]: the IC50 worked out at 7.2 µM.

As to `O=C(O)CCc1nnc2cc(-c3ccc(Nc4nc5ccc(Cl)cc5s4)cc3)ccn12` [Example 8, 3-(7-(4-(6-Chlorobenzo[d]thiazol-2-ylamino)phenyl)-[1,2,4]triazolo[4,3-a]pyridin-3-yl)propanoic acid], the IC50 worked out at 0.49 µM.
